Measurements from ChEMBL document CHEMBL1126469, “On the significance of the C-terminal primary amide in cholecystokinin” (Bioorg Med Chem Lett, 1993).

Legend:
Rattus norvegicus [1] = species on record: Rattus norvegicus; assay: Antagonist activity against amylase secretion from rat pancreatic acini; assay type: functional, organism-based
[2] = target: T1, Gastrin/cholecystokinin type B receptor (Rattus norvegicus, UniProt P30553); assay: In vitro binding affinity against Cholecystokinin type B receptor of rat pancreatic acini
T1 sequence (P30553 whole entry): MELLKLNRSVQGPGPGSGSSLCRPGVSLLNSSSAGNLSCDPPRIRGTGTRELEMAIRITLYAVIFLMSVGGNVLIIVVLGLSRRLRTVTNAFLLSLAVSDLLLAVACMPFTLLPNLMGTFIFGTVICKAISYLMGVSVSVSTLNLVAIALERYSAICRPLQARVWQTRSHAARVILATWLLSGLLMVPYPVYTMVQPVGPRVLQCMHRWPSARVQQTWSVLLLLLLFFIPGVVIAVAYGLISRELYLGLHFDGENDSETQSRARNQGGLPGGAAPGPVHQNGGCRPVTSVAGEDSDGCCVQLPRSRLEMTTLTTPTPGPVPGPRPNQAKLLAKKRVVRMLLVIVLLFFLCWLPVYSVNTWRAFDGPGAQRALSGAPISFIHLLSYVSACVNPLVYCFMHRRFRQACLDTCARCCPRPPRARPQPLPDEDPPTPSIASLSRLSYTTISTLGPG

Rattus norvegicus [3] = species on record: Rattus norvegicus; assay: The compound was tested for its ability to stimulate amylase secretion from rat pancreatic acini; assay type: functional, organism-based

SMILES | IC50 [2] [µM] | EC50 (Rattus norvegicus [3]; Rattus norvegicus) [µM] | other results
CCCC[C@H](NC(=O)[C@H](Cc1ccc(OS(=O)(=O)O)cc1)NC(=O)OC(C)(C)C)C(=O)NCC(=O)N[C@H](Cc1c[nH]c2ccccc12)C(=O)N[C@@H](CCCC)C(=O)N[C@@H](CC(=O)O)C(=O)NCCc1ccccc1 | 0.5 | – | IC50 (Rattus norvegicus [1]): 30 µM
CCCC[C@H](NC(=O)[C@H](Cc1ccc(OS(=O)(=O)O)cc1)NC(=O)OC(C)(C)C)C(=O)NCC(=O)N[C@@H](Cc1c[nH]c2ccccc12)C(=O)N[C@@H](CCCC)C(=O)N[C@@H](CC(=O)O)C(=O)NCC(c1ccccc1)c1ccccc1 | – | 0.032 | –
CCCC[C@H](NC(=O)[C@H](Cc1ccc(OS(=O)(=O)O)cc1)NC(=O)OC(C)(C)C)C(=O)NCC(=O)N[C@H](Cc1c[nH]c2ccccc12)C(=O)N[C@@H](CCCC)C(=O)N[C@@H](CC(=O)O)C(=O)NCC(c1ccccc1)c1ccccc1 | – | 9.3 | –
CCCC[C@H](NC(=O)[C@H](Cc1ccc(OS(=O)(=O)O)cc1)NC(=O)OC(C)(C)C)C(=O)NCC(=O)N[C@@H](Cc1c[nH]c2ccccc12)C(=O)N[C@@H](CCCC)C(=O)N[C@@H](CC(=O)O)C(=O)NCCc1ccccc1 | 0.1 | – | EC50 (Rattus norvegicus [3]): 0.03 µM
CCCC[C@H](NC(=O)[C@H](Cc1ccc(OS(=O)(=O)O)cc1)NC(=O)OC(C)(C)C)C(=O)NCC(=O)N[C@H](Cc1c[nH]c2ccccc12)C(=O)N[C@@H](CCCC)C(=O)N[C@@H](CC(=O)O)C(=O)N(C)CCc1ccccc1 | – | – | IC50 (Rattus norvegicus [1]): 26 µM
CCCC[C@H](NC(=O)[C@H](Cc1ccc(OS(=O)(=O)O)cc1)NC(=O)OC(C)(C)C)C(=O)NCC(=O)N[C@H](Cc1c[nH]c2ccccc12)C(=O)N[C@@H](CCCC)C(=O)N[C@@H](CC(=O)O)C(=O)NC(Cc1ccccc1)Cc1ccccc1 | – | 86 | –
CCCC[C@H](NC(=O)[C@H](Cc1ccc(OS(=O)(=O)O)cc1)NC(=O)OC(C)(C)C)C(=O)NCC(=O)N[C@@H](Cc1c[nH]c2ccccc12)C(=O)N[C@@H](CCCC)C(=O)N[C@@H](CC(=O)O)C(=O)NC(Cc1ccccc1)Cc1ccccc1 | – | 0.7 | –
CCCC[C@H](NC(=O)C(Cc1c[nH]c2ccccc12)NC(=O)CNC(=O)[C@H](CCCC)NC(=O)[C@H](Cc1ccc(OS(=O)(=O)O)cc1)NC(=O)OC(C)(C)C)C(=O)N[C@@H](CC(=O)O)C(=O)NCCc1ccccc1 (single isomer, unassigned) | 0.048 | – | EC50 (Rattus norvegicus [3]): 0.07 µM
